# Measurements taken from patent US3950350A, “Penam-dimethylsulfoxide complex” (Pfizer Inc., priority 1974, dated 1976).
# Where two headings read alike, the source gives them in different places.
# Experiments:
# Streptococcus pyogenes = experiment: In vitro minimum inhibitory concentration (MIC), two-fold serial dilution in Brain-Heart Infusion broth; assay type: cell-based; settings: read-out: MIC vs. Strep. pyogenes
# Experimental: The antibacterial penam compounds, 6, show activity against a wide variety of gram-positive and gram-negative bacteria. […] The broth is inoculated with the bacterial culture, and with the test antibiotic, and then it is incubated overnight. On the next day, the test is read visually. The minimum inhibitory concentration (MIC) is the lowest concentration of antibiotic which prevents turbidity, i.e., which prevents growth of the microorganism. In vitro activities of several of the penam compounds of the invention are presented later in this specification.
# In vitro antibacterial activities for a number of compounds prepared by the procedure of Example 4 are presented below.
# In Table II, the minimum inhibitory concentrations (MIC's) of numerous compounds against a strain of Streptococcus pyogenes, are reported.
# Staphylococcus aureus = experiment: In vivo protection of mice against systemic infection by lethal intraperitoneal inoculum of Staphylococcus aureus; parameters: species or system infected mice; Staphylococcus aureus; settings: SC, multiple dosing
# Experimental: (§1) These antibacterial penam compounds are also active in vivo. In determining such activity, the test antibiotic is administered to infected mice, using a multiple dosing regimen. The severity of the infection varies from about one to about ten times the dose needed to kill 100% of the mice under the conditions of the test. At the end of the test, the activity of a compound is assessed by counting the number of survivors among the treated animals. Both the subcutaneous (SC) and oral (PO) dosage routes are used. Results are given in Table I for two compounds produced from the novel intermediate of the invention. The ability of the compounds to protect mice against systemic infections caused by a lethal intraperitoneal inoculum of Staphylococcus aureus or of Escherichia coli is presented.
# Escherichia coli = experiment: In vivo protection of mice against systemic infection by lethal intraperitoneal inoculum of Escherichia coli; parameters: species or system infected mice; Escherichia coli; settings: multiple dosing
# Experimental: as §1
# [1] = two-fold serial dilution, Brain-Heart Infusion broth, overnight incubation
SMILES,MIC (Streptococcus pyogenes; [1]) [µg/mL],other results
CC1(C)SC2C(NC(=O)[C@H](N)c3ccc(O)c(Cl)c3)C(=O)N2C1c1nn[nH]n1 (stereo partly drawn),0.1,–
CC1(C)SC2C(NC(=O)C(N)c3cc(O)ccc3Br)C(=O)N2C1c1nn[nH]n1 (racemic),< 0.1,–
CC1(C)SC2C(NC(=O)C(N)c3ccc(Cl)cc3)C(=O)N2C1c1nn[nH]n1 (racemic) [DL-2-amino-2-(p-chlorophenyl)acetyl],< 0.1,–
CC1(C)SC2C(NC(=O)C3(N)CCCCC3)C(=O)N2C1c1nn[nH]n1 (stereo not drawn) [1-aminocyclohexylcarbonyl],25,–
CC1(C)SC2C(NC(=O)CSc3ccncc3)C(=O)N2C1c1nn[nH]n1 (stereo not drawn) [2-(4-pyridylthio)acetyl],–,MIC (Streptococcus pyogenes): < 0.1 µg/mL
CC1(C)SC2C(NC(=O)C(N=[N+]=[N-])c3ccccc3)C(=O)N2C1c1nn[nH]n1 (stereo not drawn) [2-azido-2-phenylacetyl],< 0.1,–
CC1(C)SC2C(NC(=O)COc3ccccc3)C(=O)N2C1c1nn[nH]n1 (stereo not drawn) [2-phenoxyacetyl],< 0.1,–
"CC1(C)S[C@@H]2C(NC(=O)[C@H](N)c3ccsc3)C(=O)N2C1c1nnn[nH]1 (stereo partly drawn) [6-(D-2-amino-2-[3-thienyl]acetamido)-2,2-dimethyl-3-(5-tetrazolyl)penam]",–,"Percentage Protection S. aureus (Staphylococcus aureus; 6 mg./kg.): 50 Percentage; Percentage Protection S. aureus (Staphylococcus aureus; 12 mg./kg.): 50 Percentage; Percentage Protection S. aureus (Staphylococcus aureus; 25 mg./kg.): 60 Percentage; Percentage Protection S. aureus (Staphylococcus aureus; 50 mg./kg.): 40 Percentage; Percentage Protection E. coli (Escherichia coli; 25 mg./kg., SC): 20 Percentage; Percentage Protection E. coli (Escherichia coli; 50 mg./kg., SC): 20 Percentage; Percentage Protection E. coli (Escherichia coli; 200 mg./kg., PO): 0 Percentage"
"CC1(C)S[C@@H]2C(NC(=O)[C@H](N)c3ccc(O)cc3)C(=O)N2C1c1nnn[nH]1 (stereo partly drawn) [6-(D-2-amino-2-[p-hydroxyphenyl]acetamido)-2,2-dimethyl-3-(5-tetrazolyl)penam]",< 0.1,"Percentage Protection S. aureus (Staphylococcus aureus; 6 mg./kg.): 50 Percentage; Percentage Protection S. aureus (Staphylococcus aureus; 12 mg./kg.): 50 Percentage; Percentage Protection S. aureus (Staphylococcus aureus; 25 mg./kg.): 70 Percentage; Percentage Protection S. aureus (Staphylococcus aureus; 50 mg./kg.): 80 Percentage; Percentage Protection E. coli (Escherichia coli; 25 mg./kg., SC): 80 Percentage; Percentage Protection E. coli (Escherichia coli; 50 mg./kg., SC): 100 Percentage; Percentage Protection E. coli (Escherichia coli; 200 mg./kg., PO): 100 Percentage"
CC1(C)SC2C(NC(=O)[C@H](N)Cc3ccccc3)C(=O)N2C1c1nn[nH]n1 (stereo partly drawn) [D-2-amino-3-phenylpropionyl],0.39,–
CCOC(=O)NC1C(=O)N2C1SC(C)(C)C2c1nn[nH]n1 (stereo not drawn) [ethoxycarbonyl],< 0.1,–
"CC1(C)S[C@@H]2C(N)C(=O)N2C1c1nnn[nH]1 (stereo partly drawn) [hydrogen, 6-Amino-2,2-dimethyl-3-(5-tetrazolyl)penam]",< 0.1,–
CC1(C)SC2C(NC(=O)Oc3ccccc3)C(=O)N2C1c1nn[nH]n1 (stereo not drawn) [phenoxycarbonyl],–,MIC (Streptococcus pyogenes): < 0.1 µg/mL

# More lines, main results first:
MIC (Streptococcus pyogenes; [1]) [µg/mL],SMILES,other results
< 0.1,Cc1onc(-c2ccccc2Cl)c1C(=O)NC1C(=O)N2C1SC(C)(C)C2c1nn[nH]n1 (stereo not drawn),–
0.39,CN(C)c1ccc(C(N)C(=O)NC2C(=O)N3C2SC(C)(C)C3c2nn[nH]n2)cc1 (racemic),–
< 0.1,"CC1(C)SC2C(NC(=O)C(N)c3ccc(O)c(O)c3)C(=O)N2C1c1nn[nH]n1 (racemic) [DL-2-amino-2-(3,4-dihydroxyphenyl)acetyl]",–
0.78,CC1(C)SC2C(NC(=O)C(N)c3cccc(Cl)c3)C(=O)N2C1c1nn[nH]n1 (racemic) [DL-2-amino-2-(m-chlorophenyl)acetyl],–
< 0.2,"COc1cccc(OC)c1C(=O)NC1C(=O)N2C1SC(C)(C)C2c1nn[nH]n1 (stereo not drawn) [2,6-dimethoxybenzoyl]",–
< 0.39,CC1(C)SC2C(NC(=O)Cn3cnnn3)C(=O)N2C1c1nn[nH]n1 (stereo not drawn) [2-(1-tetrazolyl)acetyl],–
< 0.1,"CCN=C(NCC)SCC(=O)NC1C(=O)N2C1SC(C)(C)C2c1nn[nH]n1 (stereo not drawn) [2-(N,N'-diethylamidinothio)acetyl]",–
< 0.1,CC1(C)SC2C(NC(=O)CBr)C(=O)N2C1c1nn[nH]n1 (stereo not drawn) [2-bromoacetyl],–
0.1,CC1(C)SC2C(NC(=O)CC#N)C(=O)N2C1c1nn[nH]n1 (stereo not drawn) [2-cyanoacetyl],–
< 0.1,"CC1(C)S[C@@H]2C(NC(=O)Cc3ccccc3)C(=O)N2C1c1nnn[nH]1 (stereo partly drawn) [2-phenylacetyl, 6-(2-phenylacetamido)-2,2-dimethyl-3-(5-tetrazolyl)penam]",–
< 0.1,CC1(C)SC2C(NC(=O)C=CC(N)=O)C(=O)N2C1c1nn[nH]n1 (stereo not drawn) [3-(carbamoyl)acryloyl],–
0.1,CC1(C)SC2C(NC(=O)[C@H](N)c3cccs3)C(=O)N2C1c1nn[nH]n1 (stereo partly drawn) [D-2-amino-2-(2-thienyl)acetyl],–
< 0.1,CC1(C)SC2C(NC(=O)[C@H](N)c3cccc(F)c3)C(=O)N2C1c1nn[nH]n1 (stereo partly drawn) [D-2-amino-2-(m-fluorophenyl)acetyl],–
< 0.1,CC1(C)SC2C(NC(=O)[C@H](N)c3cccc(O)c3)C(=O)N2C1c1nn[nH]n1 (stereo partly drawn) [D-2-amino-2-(m-hydroxyphenyl)acetyl],–
< 0.1,CC1(C)SC2C(NC(=O)[C@H](N)c3ccccc3)C(=O)N2C1c1nn[nH]n1 (stereo partly drawn) [D-2-amino-2-phenylacetyl],–
0.2,CC(C)[C@@H](N)C(=O)NC1C(=O)N2C1SC(C)(C)C2c1nn[nH]n1 (stereo partly drawn) [D-2-amino-3-methylbutyryl],–
< 0.1,CC1(C)SC2C(NC(=O)[C@@H](N)c3ccc(O)cc3)C(=O)N2C1c1nn[nH]n1 (stereo partly drawn) [L-2-amino-2-(p-hydroxyphenyl)acetyl],–
< 0.1,CC(=O)NC1C(=O)N2C1SC(C)(C)C2c1nn[nH]n1 (stereo not drawn) [acetyl],–
< 0.1,CC1(C)SC2C(NC(=O)OCc3ccccc3)C(=O)N2C1c1nn[nH]n1 (stereo not drawn) [benzyloxycarbonyl],–
